Test results from ChEMBL document CHEMBL1201862, “PubChem BioAssay data set” (2004).
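The compound was tested at five concentrations on cells cultured in 96-well plates, with a 48-hour exposure period. GI50 = concentration required for 50% inhibition of growth.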 The source made the active and inactive calls. Cut-off read from the data, not from the text of the source: active = GI50 up to about 1.1 µM and inactive = higher. Where a SMILES comes first, the peptide text is derived from it. The star is where a group is joined. Cbz = O=C(OCc1ccccc1)*

Legend:
Assay in all cases: growth of human tumour cells (NCI), 48 h
ACHN = system: ACHN
BT-549 = system: BT-549
DU-145 = system: DU-145
HCC 2998 = system: HCC 2998
HCT-116 = system: HCT-116
K562 = system: K562
KM12 = system: KM12
MDA-MB-231 = system: MDA-MB-231
MDA-N = system: MDA-N
OVCAR-4 = system: OVCAR-4
PC-3 = system: PC-3
RPMI-8226 = system: RPMI-8226
RXF 393 = system: RXF 393
SK-MEL-28 = system: SK-MEL-28
SK-MEL-2 = system: SK-MEL-2
SK-MEL-5 = system: SK-MEL-5
UACC-62 = system: UACC-62
NCI-H460 = system: NCI-H460
HOP-92 = system: HOP-92

Measured: GI50

CC(C)CC(=O)CC(O)C(Cl)(Cl)Cl (stereo not drawn)
inactive: ACHN > 100 µM | BT-549 > 100 µM | DU-145 > 100 µM | HCC 2998 > 100 µM | HCT-116 > 100 µM | K562 > 100 µM | KM12 > 100 µM | MDA-MB-231 > 100 µM | MDA-N > 100 µM | OVCAR-4 > 100 µM | PC-3 > 100 µM | RPMI-8226 > 100 µM | RXF 393 > 100 µM | SK-MEL-28 > 100 µM | SK-MEL-2 > 100 µM | SK-MEL-5 > 100 µM | UACC-62 > 100 µM

S=C1CC(c2ccccc2)Sc2ccc(Cl)cc2N1 (stereo not drawn)
inactive: ACHN 58.1 µM | BT-549 19.9 µM | DU-145 42.9 µM | HCT-116 21.2 µM | K562 16.2 µM | KM12 56.6 µM | MDA-MB-231 47.9 µM | MDA-N 38.8 µM | NCI-H460 21.2 µM | OVCAR-4 54.5 µM | PC-3 4.56 µM | RPMI-8226 90.4 µM | RXF 393 2.99 µM | SK-MEL-28 41.1 µM | SK-MEL-5 22 µM | UACC-62 48.1 µM

Cc1ccc(S(=O)(=O)N2CC3OC(C)(C)OC3C2CO)cc1 (stereo not drawn)
inactive: ACHN > 100 µM | DU-145 > 100 µM | HCC 2998 > 100 µM | HCT-116 > 100 µM | HOP-92 > 100 µM | K562 > 100 µM | KM12 > 100 µM | MDA-MB-231 > 100 µM | MDA-N > 100 µM | NCI-H460 > 100 µM | OVCAR-4 > 100 µM | PC-3 > 100 µM | RPMI-8226 > 100 µM | RXF 393 > 100 µM | SK-MEL-28 > 100 µM | SK-MEL-2 > 100 µM | SK-MEL-5 > 100 µM

Nc1ncnc2c1nnn2C1CCC(CP(=O)(O)O)C1 (stereo not drawn)
inactive: ACHN > 100 µM | DU-145 > 100 µM | HCC 2998 > 100 µM | HCT-116 > 100 µM | HOP-92 > 100 µM | K562 > 100 µM | KM12 > 100 µM | MDA-MB-231 > 100 µM | MDA-N > 100 µM | NCI-H460 > 100 µM | OVCAR-4 > 100 µM | PC-3 > 100 µM | RPMI-8226 > 100 µM | RXF 393 > 100 µM | SK-MEL-28 > 100 µM | SK-MEL-2 > 100 µM | SK-MEL-5 > 100 µM | UACC-62 > 100 µM

CC(CCC#N)(CCC#N)C(=O)CC(O)(C(F)(F)F)C(F)(F)F
inactive: ACHN 4.13 µM | DU-145 11.4 µM | HCC 2998 17 µM | HCT-116 2.8 µM | HOP-92 4.86 µM | K562 1.36 µM | KM12 18.1 µM | MDA-MB-231 4.06 µM | MDA-N 1.73 µM | NCI-H460 16.6 µM | OVCAR-4 5.02 µM | PC-3 11.9 µM | RPMI-8226 2.64 µM | RXF 393 2.07 µM | SK-MEL-28 11 µM | SK-MEL-2 33.7 µM | SK-MEL-5 13.3 µM | UACC-62 6.19 µM

O=C(c1cccs1)N(C(=S)OCc1ccccn1)c1ccccc1
inactive: ACHN 50.6 µM | BT-549 47.3 µM | DU-145 69.2 µM | HCT-116 63.5 µM | K562 42 µM | KM12 84.9 µM | MDA-MB-231 59.7 µM | MDA-N > 100 µM | NCI-H460 70.3 µM | PC-3 47.8 µM | RPMI-8226 37.4 µM | RXF 393 31 µM | SK-MEL-28 > 100 µM | SK-MEL-2 > 100 µM | SK-MEL-5 51.2 µM | UACC-62 > 100 µM

CCOC(=O)CNC(=O)C(C)NC(=O)C(NC(=O)OCc1ccccc1)C(C)C (stereo not drawn) (Cbz-Val-Ala-Gly-OEt; configuration not given here)
inactive: ACHN > 100 µM | BT-549 58.7 µM | DU-145 > 100 µM | HCC 2998 90.2 µM | HCT-116 > 100 µM | HOP-92 > 100 µM | K562 48.1 µM | KM12 > 100 µM | MDA-N > 100 µM | NCI-H460 > 100 µM | PC-3 > 100 µM | RPMI-8226 > 100 µM | RXF 393 > 100 µM | SK-MEL-28 > 100 µM | SK-MEL-2 77.8 µM | SK-MEL-5 > 100 µM | UACC-62 > 100 µM

CCOC(=O)N/N=C(\CC)OCC
inactive: ACHN > 100 µM | BT-549 > 100 µM | DU-145 > 100 µM | HCC 2998 > 100 µM | HCT-116 > 100 µM | K562 > 100 µM | KM12 > 100 µM | MDA-MB-231 > 100 µM | MDA-N > 100 µM | NCI-H460 > 100 µM | PC-3 > 100 µM | RXF 393 > 100 µM | SK-MEL-2 > 100 µM | SK-MEL-5 > 100 µM | UACC-62 > 100 µM

CCOC(=O)C(=CNc1ccc(F)c(F)c1)C(=O)OCC
inactive: ACHN > 100 µM | DU-145 > 100 µM | HCC 2998 > 100 µM | HCT-116 > 100 µM | HOP-92 > 100 µM | K562 39.4 µM | KM12 > 100 µM | MDA-MB-231 > 100 µM | MDA-N 93.1 µM | NCI-H460 > 100 µM | OVCAR-4 95.3 µM | PC-3 67.6 µM | RPMI-8226 64.1 µM | RXF 393 > 100 µM | SK-MEL-28 > 100 µM | SK-MEL-2 > 100 µM | SK-MEL-5 > 100 µM

COC(=O)[C@](C)(Cc1ccccc1)NC(=O)[C@@H](C)N1[C@@H](c2ccccc2)COC1(C)C
inactive: ACHN 36.7 µM | BT-549 48.2 µM | HCT-116 38.5 µM | HOP-92 36 µM | K562 48.1 µM | KM12 22.2 µM | MDA-MB-231 47 µM | MDA-N 44.2 µM | NCI-H460 31 µM | OVCAR-4 39.6 µM | PC-3 29.1 µM | RPMI-8226 39.5 µM | RXF 393 75.3 µM | SK-MEL-28 > 100 µM | SK-MEL-2 > 100 µM | SK-MEL-5 43.5 µM | UACC-62 63.5 µM

NC(=O)C(N)CC12CC3CC(CC(C3)C1)C2 (stereo not drawn)
inactive: ACHN 32.4 µM | DU-145 12.6 µM | HCC 2998 21.6 µM | HCT-116 17 µM | HOP-92 15.5 µM | K562 28.9 µM | KM12 20.1 µM | MDA-MB-231 14 µM | MDA-N 13.6 µM | NCI-H460 34.4 µM | OVCAR-4 17.5 µM | PC-3 18.2 µM | RPMI-8226 19.6 µM | RXF 393 16.3 µM | SK-MEL-28 20.1 µM | SK-MEL-2 24.6 µM | SK-MEL-5 15.2 µM | UACC-62 14.5 µM

CC1=NCC[N+]1(CCc1ccccc1)Cc1ccccc1 (stereo not drawn)
inactive: ACHN > 100 µM | BT-549 33.6 µM | DU-145 > 100 µM | HCC 2998 35.7 µM | HCT-116 49 µM | HOP-92 4.78 µM | K562 2.94 µM | KM12 47.2 µM | MDA-MB-231 62.4 µM | MDA-N 46.3 µM | NCI-H460 34.8 µM | OVCAR-4 37.2 µM | RPMI-8226 13.7 µM | RXF 393 > 100 µM | SK-MEL-28 64.6 µM | SK-MEL-2 27.7 µM | SK-MEL-5 14.7 µM | UACC-62 75.2 µM

NC(Cc1ccc(S(=O)(=O)O)cc1)C(=O)NC(Cc1ccc(S(=O)(=O)O)cc1)C(=O)NC(Cc1ccc(S(=O)(=O)O)cc1)C(=O)NC(Cc1ccc(S(=O)(=O)O)cc1)C(=O)O (stereo not drawn)
inactive: ACHN > 100 µM | BT-549 > 100 µM | DU-145 > 100 µM | HCC 2998 > 100 µM | HCT-116 > 100 µM | KM12 3.92 µM | MDA-MB-231 > 100 µM | MDA-N > 100 µM | NCI-H460 > 100 µM | OVCAR-4 > 100 µM | PC-3 > 100 µM | RPMI-8226 > 100 µM | RXF 393 > 100 µM | SK-MEL-28 > 100 µM | SK-MEL-2 > 100 µM | SK-MEL-5 > 100 µM | UACC-62 > 100 µM

CCOP(=O)(OCC)/C(=C\N1C(=O)CC(=O)NC1=S)C(=O)OC
inactive: ACHN > 100 µM | BT-549 > 100 µM | DU-145 > 100 µM | HCC 2998 > 100 µM | HCT-116 > 100 µM | HOP-92 > 100 µM | KM12 > 100 µM | MDA-MB-231 > 100 µM | MDA-N > 100 µM | NCI-H460 > 100 µM | OVCAR-4 > 100 µM | RXF 393 > 100 µM | SK-MEL-28 > 100 µM | SK-MEL-2 > 100 µM | SK-MEL-5 > 100 µM | UACC-62 > 100 µM

COc1ccc2c(N=[N+]=[N-])c(-c3ccccc3)c(=O)oc2c1
inactive: ACHN 41.1 µM | BT-549 31.4 µM | DU-145 65.6 µM | HCC 2998 92.3 µM | HCT-116 44.3 µM | K562 40 µM | KM12 34.5 µM | MDA-MB-231 87.1 µM | MDA-N 48.8 µM | NCI-H460 49.3 µM | PC-3 52.7 µM | RPMI-8226 20.8 µM | SK-MEL-28 > 100 µM | SK-MEL-5 25.5 µM | UACC-62 58.6 µM

C=C(C)[C@@H]1CCC2=C[C@@H](OC2=O)[C@@H](C(=C)C)C2=CC(C(=O)O)=C(C1)O2
inactive: ACHN > 100 µM | BT-549 > 100 µM | DU-145 > 100 µM | HCC 2998 > 100 µM | HCT-116 60.4 µM | HOP-92 > 100 µM | K562 41 µM | KM12 80.2 µM | MDA-MB-231 > 100 µM | MDA-N > 100 µM | OVCAR-4 > 100 µM | RPMI-8226 40.6 µM | RXF 393 > 100 µM | SK-MEL-2 > 100 µM | SK-MEL-5 > 100 µM | UACC-62 > 100 µM
